Data on 20 molecules can be found in patent publication US20250339399A1, “SUPRAMOLECULAR SELF-ASSEMBLY SYSTEM” (Beijing Creatron Institute of Pharmaceutical Research Co., …, priority 2022, published 2025).

In general, LogP refers to the decadic logarithm of the partition coefficient of the neutral form, usually between octanol and water.

Read-outs that look alike come from different tables or passages of the source.

For data set [1] the following is noted: cited from earlier work; for Sol / LogP: natural flavonoids (chalcone, dihydrochalcone class).
Data set [2] in a line: Guest molecule concentration after incubation in initial medium without polymer (Comparative Example 1). The data set is classed as physicochemical. Particulars: 37° C. In outline: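 Dissolved guest content measured by HPLC of centrifuged supernatants (37° C., 13000 rpm, 5 min) sampled at 0.5 h, 3 h and 6 h. Incubation was polymer-free at 37° C.±0.5° C. in buffers of pH 2.0-7.4; nominal loading was set by maximum clinical dose.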

Data set [3] is described as follows: Binary supramolecular self-assembly systems of polymer and target: guest concentration over incubation time (Comparative Example 2). The data set is classed as physicochemical. The settings on record: for Concentration of guest molecule in solution / Times that of the initial medium: 6 h. The protocol: Experiments were conducted according to the steps in Comparative Example 1, and quantitative analysis was carried out using the analytical method for each target to investigate the regulation ability […] stacking.

A short description of data set [4]: Binary (carrier), ternary and quaternary supramolecular self-assembly systems of polymer, carrier building block and target: guest concentration over incubation time (Examples 1-56). It counts as physicochemical. Particulars: for Concentration of guest molecule in solution / Times that of the initial medium: 6 h. In a few lines:
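Targets were incubated at 37 °C in pH 2.0–7.4 buffers with 0.5% polymer alone or with carrier building blocks, after 0.5 h sonication for ternary systems, and shaken at 200 rpm. Samples at 0.5–6 h were centrifuged and diluted ≥10-fold, and dissolved target was quantified by HPLC; surfactant was added if needed.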

The conditions of data set [5]: cited from earlier work.
[6] abbreviates: parent flavonoid of the class, no unit printed in the heading.
The mark [7] stands for this setting: binary: 310, % not stated at the place.
The mark [8] stands for this setting: binary: 312, % not stated at the place.
[9] abbreviates: ternary: 102H (0.25% where stated) + 301, carrier % not stated.
[10] abbreviates: ternary: 102H (0.25% where stated) + 302, carrier % not stated.

On to `O=c1c(O)c(-c2ccc(O)c(O)c2)oc2cc(O)cc(O)c12` [Quercetin], for which, in data set [1] (parent flavonoid of the class, Table 1 basic information, unit not given), the Intrinsic solubility entry is “Quercetin (CAS 117-39-5) derivatives EUF (Intrinsic solubility: 1.11)”.

For `O=C(CCc1ccc(O)cc1)c1c(O)cc(O)cc1O` [Phloretin, 3-(4-hydroxyphenyl)-1-(2,4,6-trihydroxyphenyl)propan-1-one], in data set [1] (Table 1 basic information), the Sol was 3.07 mg/mL.

`O=C(CCc1ccc(O)cc1)c1c(O)cc(O)cc1O[C@@H]1O[C@H](CO)[C@@H](O)[C@H](O)[C@H]1O` [Phloridzin, 1-[2,4-dihydroxy-6-[(2S,3R,4S,5S,6R)-3,4,5-trihydroxy-6-(hydroxymethyl)oxo-2-yl]oxophenyl]-3-(4-hydroxyphenyl)propan-1-one]: the Sol in data set [1] (Table 1 basic information) was 3.89 mg/mL.

In the case of `COc1ccc(CCC(=O)c2c(O)cc(O[C@@H]3O[C@H](CO)[C@@H](O)[C@H](O)[C@H]3O[C@@H]3O[C@@H](C)[C@H](O)[C@@H](O)[C@H]3O)cc2O)cc1O` [Neosperidin dihydrochalcone, neohesperidin dihydrochalcone], the Sol in data set [1] (Table 1 basic information) was 104.87 mg/mL.

Regarding `O=c1cc(-c2ccc(O)c(O)c2)oc2cc(O)cc(O)c12` [Luteolin], the “solubility value given in Table 1 (basic information of natural flavonoids)” value (“solubility value given” below) in data set [1] (setting [6]) is listed as “Luteolin (CAS: 491-70-3) derivatives-0.40”.

`O=C(CCc1ccc(O)c(O)c1)c1c(O)cc(O[C@@H]2O[C@H](CO)[C@@H](O)[C@H](O)[C@H]2O)cc1O` [Sieboldin, 1-(2,6-dihydroxy-4-{[3,4,5-trihydroxy-6-(hydroxymethyl)oxo-2-yl]oxy}phenyl)-3-(3,4-dihydroxyphenyl)propan-1-one]: in data set [1] (Table 1 basic information), the lipophilicity (LogP) is reported as 1.32 and the Sol is 11.65 mg/mL.

As to `O=C(CCc1ccc(O)c(O)c1)c1c(O)cc(O)c([C@@H]2O[C@H](CO)[C@@H](O)[C@H](O)[C@H]2O)c1O` [Aspalathin, 3-(3,4-dihydroxyphenyl)-1-{2,4,6-trihydroxy-3-[3,4,5-trihydroxy-6-(hydroxymethyl)oxo-2-yl]phenyl]propan-1-one], in data set [1] (Table 1 basic information), the lipophilicity (LogP) was 0.83 and the Sol was 36.12 mg/mL.

Regarding `C=C1C[C@@]23CC[C@H]4[C@@](C)(CCC[C@@]4(C)C(=O)O[C@@H]4O[C@H](CO)[C@@H](O)[C@H](O)[C@H]4O)[C@@H]2CC[C@]1(O[C@@H]1O[C@H](CO)[C@@H](O)[C@H](O[C@@H]2O[C@H](CO)[C@@H](O)[C@H](O)[C@H]2O)[C@H]1O[C@@H]1O[C@@H](C)[C@H](O)[C@@H](O)[C@H]1O)C3` [Rebaudioside C, rebaudioside C], the Intrinsic solubility entry in data set [1] is “Intrinsic solubility: 72.63 mg/ml”.

As for `CC1(C)[C@@H](O[C@H]2O[C@H](C(=O)O)[C@@H](O)[C@H](O)[C@H]2O[C@@H]2O[C@H](C(=O)O)[C@@H](O)[C@H](O)[C@H]2O)CC[C@]2(C)[C@H]3C(=O)C=C4[C@@H]5C[C@@](C)(C(=O)O)CC[C@]5(C)CC[C@@]4(C)[C@]3(C)CC[C@@H]12` [Glycyrrhizic acid, glycyrrhizic acid], in data set [1] (pH > 5.0), the Solubility result was “pH > 5.0: 159 mg/ml”.

Turning to `O=C(CCc1ccc(O)c(O)c1)c1c(O)cc(O)cc1O` [3-hydroxyphloretin, 3-(3,4-dihydroxyphenyl)-1-(2,4,6-trihydroxyphenyl)propan-1-one], the Sol in data set [1] (Table 1 basic information) was 8.59 mg/mL.

Take `COc1cc(-c2oc3cc(O)cc(O)c3c(=O)c2O)ccc1O` [Isorhamnetin]: in data set [1] (parent flavonoid of the class, Table 1 basic information), the “Intrinsic solubility (value in the class heading)” value is listed as “Isorhamnetin derivatives (0.45 mg/ml)”.

As for `O=C(CCc1ccc(O)c(O)c1)c1c(O)cc(O)cc1O[C@@H]1O[C@H](CO)[C@@H](O)[C@H](O)[C@H]1O` [3-hydroxyphloretin 2′-glucoside], in data set [1] (Table 1 basic information), the log partition coefficient (LogP) is reported as 0.67 and the Sol was 11.65 mg/mL.

Regarding `C[C@@H]1O[C@@H](O[C@H]2[C@H](Oc3cc(O)c(C(=O)CCc4ccc(O)cc4)c(O)c3)O[C@H](CO)[C@@H](O)[C@@H]2O)[C@H](O)[C@H](O)[C@H]1O` [Naringin dihydrochalcone, naringin dihydrochalcone], in data set [1] (Table 1 basic information), the log partition coefficient (LogP) is reported as 0.90 and the Sol is 6.78 mg/mL.

Regarding `CC(=O)O[C@H]1[C@H](Oc2cc(O)c(C(=O)CCc3ccc(O)cc3)c(O)c2)O[C@H](CO)[C@@H](O)[C@@H]1O` [Trilobatin 2″-acetate, [(2S,3R,4S,5S,6R)-(R)-2-[3,5-dihydroxy-4-[3-(4-hydroxyphenyl)propionyl]phenoxy]-4,5-dihydroxy-6-(hydroxymethyl)oxy-3-yl]acetate], in data set [1] (Table 1 basic information), the log partition coefficient (LogP) is given as 2.07 and the Sol was 2.08 mg/mL.

Take `C=C1C[C@@]23CC[C@H]4[C@@](C)(CCC[C@@]4(C)C(=O)O)[C@@H]2CC[C@]1(O[C@@H]1O[C@H](CO)[C@@H](O)[C@H](O[C@@H]2O[C@H](CO)[C@@H](O)[C@H](O)[C@H]2O)[C@H]1O[C@@H]1O[C@H](CO)[C@@H](O)[C@H](O)[C@H]1O)C3` [Rebaudioside B, rebaudioside B]: the Intrinsic solubility entry in data set [1] was “Intrinsic solubility: 7.98 mg/ml”.

With `O=c1c(O)c(-c2cc(O)c(O)c(O)c2)oc2cc(O)cc(O)c12` [Myricetin], in data set [1] (parent flavonoid of the class, value follows the class name), the “solubility value given” value was “Myricetin (529-44-2) derivatives −3.14 mg/ml”.

As to `O=c1c(O)c(-c2ccc(O)cc2)oc2cc(O)cc(O)c12` [Kaempferol, kaempferol], in data set [1] (setting [6]), the “solubility value given” value is recorded as “Kaempferol (520-18-3) derivatives-0.40”.

With `C=C1C[C@@]23CC[C@H]4[C@@](C)(CCC[C@@]4(C)C(=O)O[C@@H]4O[C@H](CO)[C@@H](O)[C@H](O)[C@H]4O)[C@@H]2CC[C@]1(O[C@@H]1O[C@H](CO)[C@@H](O)[C@H](O[C@@H]2O[C@H](CO)[C@@H](O)[C@H](O)[C@H]2O)[C@H]1O[C@@H]1O[C@H](CO)[C@@H](O)[C@H](O)[C@H]1O)C3` [Rebaudioside A], in data set [1], the Intrinsic solubility result was “Intrinsic solubility: 288.8 mg/ml”.

For the molecule `COc1ccc(-n2nc(C(N)=O)c3c2C(=O)N(c2ccc(N4CCCCC4=O)cc2)CC3)cc1` [Apixaban], the “Concentration of guest molecule measured after different incubated time” value in data set [2] (0.5 h, pH 6.8 phosphate buffer) was 49.8 µg/mL; in data set [2] (3 h, pH 6.8 phosphate buffer) it was 48.7 µg/mL; in data set [2] (6 h, pH 6.8 phosphate buffer), 48.0 µg/mL. Moreover, the “Concentration of guest molecule in solution” value (“Concentration … in solution” below) in data set [3] (binary: 0.25% 102H) turned out to be 127.7 µg/mL; in data set [3] (binary: 0.25% 103E5), 114.6 µg/mL; in data set [3] (binary: 0.5% 102H), 327.6 µg/mL; in data set [4] (binary, no polymer: 0.5% 301) it was 366.6 µg/mL; in data set [4] (setting [7]), 300.0 µg/mL; in data set [4] (setting [8]), 397.9 µg/mL. In addition, the “Concentration … in solution” value came to 334.8 µg/mL in data set [4] (setting [9]) and 312.6 µg/mL in data set [4] (setting [10]). Further, the “Times that of the initial medium” value is 2.7 times in data set [3] (binary: 0.25% 102H); 2.4 times in data set [3] (binary: 0.25% 103E5); 6.7 times in data set [3] (binary: 0.5% 102H); 7.5 times in data set [4] (binary, no polymer: 0.5% 301); 6.3 times in data set [4] (setting [7]); 8.2 times in data set [4] (setting [8]). For the same molecule, the “Encapsulation rate for the guest molecule” value in data set [4] (ternary: 102H + 313 or 318) is given as about 100%. Also, the LogP result in data set [5] is recorded as “LogP 1.83”.

In the case of `O=C1[C@H](CC[C@H](O)c2ccc(F)cc2)[C@@H](c2ccc(O)cc2)N1c1ccc(F)cc1` [Ezetimibe], the “Concentration of guest molecule measured after different incubated time” value in data set [2] (0.5 h, 0.05% SDS in pH 6.8 phosphate buffer) came to 6.6 µg/mL; in data set [2] (3 h, 0.05% SDS in pH 6.8 phosphate buffer), 6.2 µg/mL; in data set [2] (6 h, 0.05% SDS in pH 6.8 phosphate buffer), 6.4 µg/mL. Further, the “Concentration of the target in the solution measured after different incubation time” value was found to be 109.4 µg/mL in data set [3] (binary system with 0.5% polymer 102, incubation 0.5 h); 117.2 µg/mL in data set [3] (binary system with 0.5% polymer 102, incubation 3 h); 138.9 µg/mL in data set [3] (binary system with 0.5% polymer 102, incubation 6 h); 8.4 µg/mL in data set [3] (binary system with 0.5% polymer 103, incubation 0.5 h); 6.9 µg/mL in data set [3] (binary system with 0.5% polymer 103, incubation 3 h); 0.9 µg/mL in data set [3] (binary system with 0.5% polymer 103, incubation 6 h). Also, the “Concentration of the target in the solution measured after different incubation time” value came out at 6.8 µg/mL in data set [3] (binary system with 0.5% polymer 104, incubation 0.5 h); 3.6 µg/mL in data set [3] (binary system with 0.5% polymer 104, incubation 3 h); 2.7 µg/mL in data set [3] (binary system with 0.5% polymer 104, incubation 6 h). The “Times that of the initial medium” value in data set [3] (binary: 0.5% 101) was determined as 18 times; in data set [3] (binary: 0.5% 102H) it was 13.5 times; in data set [4] (setting [9]), 26 times; in data set [4] (setting [10]) it was 29.5 times. Moreover, the “Concentration … in solution” value amounted to 86.6 µg/mL in data set [3] (binary: 0.5% 102H), 168.1 µg/mL in data set [4] (setting [9]) and 188.6 µg/mL in data set [4] (setting [10]). In addition, the “LogD7.4 or Log P” value in data set [5] is 4.56.
